This passage reports Km results from publication PMC6028718, “Lanthanide-Dependent Methanol Dehydrogenases of XoxF4 and XoxF5 Clades Are Differentially Distributed Among Methylotrophic Bacteria and They Reveal Different Biochemical Properties” (Frontiers in Microbiology, 2018).

The structures appear in SMILES notation.

In this experiment the test system is T1, XoxF5.
T1 construct: His-tagged, expressed in native host Methylomonas sp; LW13 (wild-type) grown with Ce3+; Ni-NTA purified
Kind of experiment: PMS-mediated DCPIP reduction at […] nm. Type of experiment: biochemical. Conditions: pH 9.0, 45 mM NH4Cl, ~26°C, 1 mM PMS, 150 μM DCPIP; Ce3+-grown enzyme; read-out: Methylomonas sp. LW13 XoxF5 / Km.
For `CCCCO` [Butanol], the Km amounted to 96 ± 70 µM.
The same measure for `CCCCCCO` [Hexanol]: 40 ± 37 µM.
As for `CO` [Methanol], the Km turned out to be 39 ± 11 µM.
`CCO` [Ethanol]: the Km worked out at 85 ± 44 µM.
